In BigSolDB 2.1:

CN(C)CCC=C1c2ccccc2CCc2ccccc21.Cl
Conditions | solubility (mole fraction)
in 2-butanone, 283.23 K | 0.00254
in 2-butanone, 288.16 K | 0.00275
in 2-butanone, 293.2 K | 0.00304
in 2-butanone, 298.15 K | 0.00338
in 2-butanone, 303.16 K | 0.00375
in 2-butanone, 308.2 K | 0.00415
in 2-butanone, 313.15 K | 0.00462
in 2-butanone, 318.67 K | 0.00518
in 2-butanone, 323.35 K | 0.00584
in DMF, 283.86 K | 0.03
in DMF, 288.15 K | 0.032
in DMF, 293.05 K | 0.0353
in DMF, 298.04 K | 0.0387
in DMF, 303.05 K | 0.0425
in DMF, 308.17 K | 0.047
in DMF, 313.3 K | 0.0519
in DMF, 318.16 K | 0.0571
in DMF, 323 K | 0.0633
in THF, 283.09 K | 0.000628
in THF, 288.07 K | 0.000755
in THF, 293.82 K | 0.000884
in THF, 298.23 K | 0.00101
in THF, 303.1 K | 0.00116
in THF, 309.04 K | 0.00135
in THF, 313.13 K | 0.00152
in THF, 317.96 K | 0.00174
in THF, 323.16 K | 0.00196
in acetone, 283.17 K | 0.00226
in acetone, 288.13 K | 0.00252
in acetone, 293.2 K | 0.00282
in acetone, 298.07 K | 0.00316
in acetone, 303.21 K | 0.00354
in acetone, 308.19 K | 0.00398
in acetone, 313.2 K | 0.00448
in acetone, 318.2 K | 0.00503
in acetone, 323.1 K | 0.00565
in acetonitrile, 283.19 K | 0.00773
in acetonitrile, 288.13 K | 0.0089
in acetonitrile, 293.2 K | 0.0102
in acetonitrile, 298.19 K | 0.0118
in acetonitrile, 303.16 K | 0.0136
in acetonitrile, 308.13 K | 0.0157
in acetonitrile, 313.17 K | 0.0183
in acetonitrile, 318.13 K | 0.0212
in acetonitrile, 323.17 K | 0.0249
in cyclohexanone, 282.93 K | 0.00512
in cyclohexanone, 288.07 K | 0.00585
in cyclohexanone, 293.11 K | 0.0066
in cyclohexanone, 298.43 K | 0.00743
in cyclohexanone, 303.09 K | 0.00829
in cyclohexanone, 308.26 K | 0.00952
in cyclohexanone, 313.27 K | 0.011
in cyclohexanone, 319.7 K | 0.0128
in cyclohexanone, 323.1 K | 0.0144
in isobutanol, 283.25 K | 0.0281
in isopentanol, 283.17 K | 0.0122
in isopentanol, 288.19 K | 0.0159
in isopentanol, 293.17 K | 0.0202
in isopentanol, 298.2 K | 0.0256
in isopentanol, 303.23 K | 0.0326
in isopentanol, 308.17 K | 0.0416
in isopentanol, 313.15 K | 0.0532
in isopentanol, 318.2 K | 0.0671
in isopentanol, 323.17 K | 0.0827
in isopropanol, 283.16 K | 0.00585
in isopropanol, 288.35 K | 0.00786
in isopropanol, 293.16 K | 0.0102
in isopropanol, 298.16 K | 0.0133
in isopropanol, 303.05 K | 0.0177
in isopropanol, 308.06 K | 0.0239
in isopropanol, 313.54 K | 0.034
in isopropanol, 318.16 K | 0.0456
in isopropanol, 323.3 K | 0.0592
in n-butanol, 283.1 K | 0.0203
in n-butanol, 288.2 K | 0.0261
in n-butanol, 293.13 K | 0.0333
in n-butanol, 298.15 K | 0.042
in n-butanol, 303.4 K | 0.0537
in n-butanol, 308.2 K | 0.0662
in n-butanol, 313.15 K | 0.0803
in n-butanol, 318.16 K | 0.0953
in n-butanol, 323.23 K | 0.112
in n-pentanol, 288.23 K | 0.0366
in n-pentanol, 293.21 K | 0.0456
in n-pentanol, 298.07 K | 0.0562
in n-pentanol, 303.07 K | 0.0701
in n-pentanol, 308.2 K | 0.0855
in n-pentanol, 313.16 K | 0.1
in n-pentanol, 318.07 K | 0.117
in n-pentanol, 323.07 K | 0.133
in n-propanol, 283.17 K | 0.0266
in n-propanol, 288.17 K | 0.0349
in n-propanol, 293.16 K | 0.0442
in n-propanol, 298.1 K | 0.0557
in n-propanol, 303.07 K | 0.0691
in n-propanol, 308.24 K | 0.0851
in n-propanol, 313.16 K | 0.1
in n-propanol, 318.07 K | 0.116
in n-propanol, 323.2 K | 0.13
in sec-butanol, 283.2 K | 0.00725
in sec-butanol, 288.2 K | 0.00934
in sec-butanol, 293.21 K | 0.0121
in sec-butanol, 298.1 K | 0.0156
in sec-butanol, 303.17 K | 0.0207
in sec-butanol, 308.13 K | 0.0278
in sec-butanol, 313.2 K | 0.0367
in sec-butanol, 318.17 K | 0.0483
in sec-butanol, 323.2 K | 0.0637
